According to US10597368B2, “Syringolin analogues and methods of making and using same” (BROWN UNIVERSITY, priority 2015, dated 2020):

What follows are compounds tested against T1, human 20S proteasome (hs20S), chymotrypsin-like β5-subunits (Homo sapiens, UniProt P20618+P28074) (assay: In vitro 20S peptidase inhibition kinetics, chymotrypsin-like activity (Suc-LLVY-AMC)). Conditions: second-order rate constant, Suc-LLVY-AMC substrate, 37° C.
T1 construct: purchased R&D
Assay type: biochemical
Experimental: In vitro 20S peptidase inhibition assays were recorded in a 384-well plate at a SpectraMax M5 (Molecular devises) plate-reader. Therefore, 5 nM human 20S (R&D) was incubated in buffer R (50 mM HEPES-KOH, pH 7.5, 0.5 mM EDTA) with 100 μM of the fluorogenic peptide substrates Suc-LLVY-AMC or Boc-LRR-AMC. Reactions were started by adding various amounts of inhibitors (5 nM to 500 μM) to a final volume of 30 μL and peptide hydrolysis was continuously monitored for 90 min by changes in fluorescence (excitation 380 nm; emission 440 nm) at 37° C. The kobs values were determined by fitting the raw data to equation (1). The slopes of the plots of kobsversus I gave an apparent value of kobs/I, also referred to as kinact/Ki for an irreversible inhibitor, which was then corrected by equation (2) to compensate for the effect of substrate competition, where app is the apparent value at different inhibitor concentrations.
Using purified human 20S proteasome (hs20S) and a fluorogenic substrate (Suc-LLVY-AMC), in vitro assays were performed to systematically assess proteasome inhibition by the syringolin analogues. The choice of substrate was based on the fact that it is preferentially acted upon by the chymotrypsin-like β5-subunits of the proteasome due to the aromatic tyrosine residue at the scissile bond (i.e., P1 position).
From measurements of the rates of hydrolysis of the fluorogenic substrate by the proteasome in the presence of increasing concentrations of each inhibitor, second-order rate constants kin/Ki (M^−1 s^−1) were determined (Table 1), which reflect both the affinity of the non-covalent binding (Ki) and the rate of the chemical reaction with the enzyme (kin). All of the syringolin analogues were capable in inhibiting the chymotrypsin-like activity of hs20S. Without wishing to be limited by any theory, consistent with the design predictions, the most significant contributor to the apparent second-order rate constants of the compounds was their binding affinity (Ki) rather than the rates of inhibition.
In vitro 20S peptidase inhibition assays were recorded in a 384-well plate at a SpectraMax M5 (Molecular Devices) plate-reader. Therefore, 5 nM human 20S (R&D) was incubated in buffer R (50 mM HEPEs-KOH, pH 7.5, 0.5 mM EDTA) with 100 μM of the fluorogenic peptide substrate Suc-LLVY-AMC. Reactions were started by adding various amounts of inhibitors 5 nM to 500 μM) to a final volume of 30 μL and peptide hydrolysis was continuously monitored for 90 minutes by changes in fluorescence (excitation 380 nm; emission 440 nm) at 37 degrees Celsius. The kobs values were determined by fitting the raw data to equation 1. The slopes of the plots of kobs versus I gave an apparent value of kob/I, also referred to as kinact/Ki for an irreversible inhibitor, which was then corrected by equation 2 to compensate for the effect of substrate competition, where app is the apparent value at different inhibitor concentrations.
For `COC(=O)[C@@H](NC(=O)N[C@H](C(=O)N[C@H]1CCCCNC(=O)/C=C/[C@H](Cc2cccc(F)c2)NC1=O)C(C)C)C(C)C` [Compound 6, (S)-methyl 2-(3-((S)-1-(((5S,8S,E)-5-(3-fluorobenzyl)-2,7-dioxo-1,6-diazacyclododec-3-en-8-yl)amino)-3-methyl-1-oxobutan-2-yl)ureido)-3-methylbutanoate], the “hs20S kin/Ki” value was 2,471 M^−1s^−1.
For `COC(=O)[C@@H](NC(=O)N[C@H](C(=O)N[C@H]1CCCCNC(=O)/C=C/[C@H](Cc2cc(F)cc(F)c2)NC1=O)C(C)C)C(C)C` [Compound 7, (S)-methyl 2-(3-((S)-1-(((5S,8S,E)-5-(3,5-difluorobenzyl)-2,7-dioxo-1,6-diazacyclododec-3-en-8-yl)amino)-3-methyl-1-oxobutan-2-yl)ureido)-3-methylbutanoate], the “hs20S kin/Ki” value was 1,579 M^−1s^−1.
`COC(=O)[C@@H](NC(=O)N[C@@H](Cc1ccccc1Cl)C(=O)N[C@H]1CCCCNC(=O)/C=C/[C@H](Cc2ccccc2F)NC1=O)C(C)C` [Compound 17, (S)-methyl 2-(3-((S)-3-(2-chlorophenyl)-1-((5S,8S,E)-5-(2-fluorobenzyl)-2,7-dioxo-1,6-diazacyclododec-3-en-8-ylamino)-1-oxopropan-2-yl)ureido)-3-methylbutanoate] was tested, and the “hs20S kin/Ki” value was 7271 M⁻¹ s⁻¹.
For `COC(=O)[C@@H](NC(=O)N[C@@H](Cc1cccc(Cl)c1)C(=O)N[C@H]1CCCCNC(=O)/C=C/[C@H](Cc2ccccc2F)NC1=O)C(C)C` [Compound 18, (S)-methyl 2-(3-((S)-3-(3-chlorophenyl)-1-((5S,8S,E)-5-(2-fluorobenzyl)-2,7-dioxo-1,6-diazacyclododec-3-en-8-ylamino)-1-oxopropan-2-yl)ureido)-3-methylbutanoate], the “hs20S kin/Ki” value was 4656 M⁻¹ s⁻¹.
In the case of `COC(=O)[C@@H](NC(=O)N[C@@H](Cc1ccccc1)C(=O)N[C@H]1CCCCNC(=O)/C=C/[C@H](Cc2ccccc2F)NC1=O)C(C)C` [Compound 19, (S)-methyl 2-(3-((S)-1-((5S,8S,E)-5-(2-fluorobenzyl)-2,7-dioxo-1,6-diazacyclododec-3-en-8-ylamino)-1-oxo-3-phenylpropan-2-yl)ureido)-3-methylbutanoate], the “hs20S kin/Ki” value is reported as 5877 M⁻¹ s⁻¹.
`COC(=O)[C@@H](NC(=O)N[C@@H](Cc1cccc(C)c1)C(=O)N[C@H]1CCCCNC(=O)/C=C/[C@H](Cc2ccccc2F)NC1=O)C(C)C` [Compound 20, (S)-methyl 2-(3-((S)-1-((5S,8S,E)-5-(2-fluorobenzyl)-2,7-dioxo-1,6-diazacyclododec-3-en-8-ylamino)-1-oxo-3-m-tolylpropan-2-yl)ureido)-3-methylbutanoate] was tested, and the “hs20S kin/Ki” value was 3797 M⁻¹ s⁻¹.
`COC(=O)[C@@H](NC(=O)N[C@@H](Cc1ccc(C)cc1)C(=O)N[C@H]1CCCCNC(=O)/C=C/[C@H](Cc2ccccc2F)NC1=O)C(C)C` [Compound 21, (S)-methyl 2-(3-((S)-1-((5S,8S,E)-5-(2-fluorobenzyl)-2,7-dioxo-1,6-diazacyclododec-3-en-8-ylamino)-1-oxo-3-p-tolylpropan-2-yl)ureido)-3-methylbutanoate] was tested, and the “hs20S kin/Ki” value was 7332 M⁻¹ s⁻¹.
With `COC(=O)[C@@H](NC(=O)N[C@@H](Cc1cccc(F)c1)C(=O)N[C@H]1CCCCNC(=O)/C=C/[C@H](Cc2ccccc2F)NC1=O)C(C)C` [Compound 23, (S)-methyl 2-(3-((S)-1-((5S,8S,E)-5-(2-fluorobenzyl)-2,7-dioxo-1,6-diazacyclododec-3-en-8-ylamino)-3-(3-fluorophenyl)-1-oxopropan-2-yl)ureido)-3-methylbutanoate] the “hs20S kin/Ki” value was 2199 M⁻¹ s⁻¹.
For `COC(=O)[C@@H](NC(=O)N[C@@H](Cc1ccccc1Cl)C(=O)N[C@H]1CCCCNC(=O)/C=C/[C@H](Cc2cccc(F)c2)NC1=O)C(C)C` [Compound 24, (S)-methyl 2-(3-((S)-3-(2-chlorophenyl)-1-((5S,8S,E)-5-(3-fluorobenzyl)-2,7-dioxo-1,6-diazacyclododec-3-en-8-ylamino)-1-oxopropan-2-yl)ureido)-3-methylbutanoate], the “hs20S kin/Ki” value was 2749 M⁻¹ s⁻¹.
For `COC(=O)[C@@H](NC(=O)N[C@@H](Cc1cccc(Cl)c1)C(=O)N[C@H]1CCCCNC(=O)/C=C/[C@H](Cc2cccc(F)c2)NC1=O)C(C)C` [Compound 25, (S)-methyl 2-(3-((S)-3-(3-chlorophenyl)-1-((5S,8S,E)-5-(3-fluorobenzyl)-2,7-dioxo-1,6-diazacyclododec-3-en-8-ylamino)-1-oxopropan-2-yl)ureido)-3-methylbutanoate], the “hs20S kin/Ki” value was 8532 M⁻¹ s⁻¹.
With `COC(=O)[C@@H](NC(=O)N[C@@H](Cc1ccc(Cl)cc1)C(=O)N[C@H]1CCCCNC(=O)/C=C/[C@H](Cc2cccc(F)c2)NC1=O)C(C)C` [Compound 26, (S)-methyl 2-(3-((S)-3-(4-chlorophenyl)-1-((5S,8S,E)-5-(3-fluorobenzyl)-2,7-dioxo-1,6-diazacyclododec-3-en-8-ylamino)-1-oxopropan-2-yl)ureido)-3-methylbutanoate] the “hs20S kin/Ki” value was 12605 M⁻¹ s⁻¹.
In the case of `COC(=O)[C@@H](NC(=O)N[C@@H](Cc1ccccc1)C(=O)N[C@H]1CCCCNC(=O)/C=C/[C@H](Cc2cccc(F)c2)NC1=O)C(C)C` [Compound 27], the “hs20S kin/Ki” value is reported as 14336 M⁻¹ s⁻¹.
`COC(=O)[C@@H](NC(=O)N[C@@H](Cc1cccc(C)c1)C(=O)N[C@H]1CCCCNC(=O)/C=C/[C@H](Cc2cccc(F)c2)NC1=O)C(C)C` [Compound 28, (S)-methyl 2-(3-((S)-1-((5S,8S,E)-S-(3 fluorobenzyl)-2,7-dioxo-1,6-diazacyclododec-3-en-8-ylamino)-1-oxo-3-m-tolylpropan-2-yl)ureido)-3-methylbutanoate] was tested, and the “hs20S kin/Ki” value was 12866 M⁻¹ s⁻¹.
`COC(=O)[C@@H](NC(=O)N[C@@H](Cc1ccc(C)cc1)C(=O)N[C@H]1CCCCNC(=O)/C=C/[C@H](Cc2cccc(F)c2)NC1=O)C(C)C` [Compound 29, (S)-methyl 2-(3-((S)-1-((5S,8S,E)-S-(3-fluorobenzyl)-2,7-dioxo-1,6-diazacyclododec-3-en-8-ylamino)-1-oxo-3-p-tolylpropan-2 yl)ureido)-3-methylbutanoate] was tested, and the “hs20S kin/Ki” value was 11670 M⁻¹ s⁻¹.
`COC(=O)[C@@H](NC(=O)N[C@@H](Cc1ccccc1F)C(=O)N[C@H]1CCCCNC(=O)/C=C/[C@H](Cc2cccc(F)c2)NC1=O)C(C)C` [Compound 30, (S)-methyl 2-(3-((S)-1-((5S,8S,E)-S-(3-fluorobenzyl)-2,7-dioxo-1,6-diazacyclododec-3-en-8-ylamino)-3-(2-fluorophenyl)-1-oxopropan-2 yl)ureido)-3-methylbutanoate] was tested, and the “hs20S kin/Ki” value was 12202 M⁻¹ s⁻¹.
In the case of `COC(=O)[C@@H](NC(=O)N[C@@H](Cc1cccc(F)c1)C(=O)N[C@H]1CCCCNC(=O)/C=C/[C@H](Cc2cccc(F)c2)NC1=O)C(C)C` [Compound 31, (S)-methyl 2-(3-((S)-1-((5S,8S,E)-5-(3-fluorobenzyl)-2,7-dioxo-1,6-diazacyclododec-3-en-8-ylamino)-3-(3-fluorophenyl)-1-oxopropan-2-yl)ureido)-3-methylbutanoate], the “hs20S kin/Ki” value is reported as 5016 M⁻¹ s⁻¹.
`COC(=O)[C@@H](NC(=O)N[C@@H](Cc1cccc(C(F)(F)F)c1)C(=O)N[C@H]1CCCCNC(=O)/C=C/[C@H](Cc2cccc(F)c2)NC1=O)C(C)C` [Compound 32, (S)-methyl 2-(3-((S)-1-((5S,8S,E)-5-(3-fluorobenzyl)-2,7-dioxo-1,6-diazacyclododec-3-en-8-ylamino)-1-oxo-3-(3-(trifluoromethyl)phenyl)propan-2-yl)ureido)-3-methylbutanoate] was tested, and the “hs20S kin/Ki” value was 4531 M⁻¹ s⁻¹.
